Assay results: US8163771B2, “11 β-HSD1 modulators” (Exelixis, Inc., priority 2008, dated 2012)
pIC50: −log10 of the molar value.

Target: T1, recombinant human 11 β-HSD1 (Homo sapiens, UniProt P28845)
T1 construct: made in house; host or cells: E. coli
Experiment: 11 β-HSD1 SPA Assay (Scintillation Proximity Assay)
Assay type: biochemical
In short: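 Scintillation proximity read-out of cortisol formed from 40 nM [3H]cortisone by purified recombinant human enzyme (30-100 nM, E. coli) with 1 mM NADPH, pH7.4, 2 hours at room temperature; beads with cortisol antibody and glycyrrhetinic acid stop the reaction, read next day. IC50 derived from inhibition normalised to background and maximal wells.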

T1 sequence (P28845 whole entry): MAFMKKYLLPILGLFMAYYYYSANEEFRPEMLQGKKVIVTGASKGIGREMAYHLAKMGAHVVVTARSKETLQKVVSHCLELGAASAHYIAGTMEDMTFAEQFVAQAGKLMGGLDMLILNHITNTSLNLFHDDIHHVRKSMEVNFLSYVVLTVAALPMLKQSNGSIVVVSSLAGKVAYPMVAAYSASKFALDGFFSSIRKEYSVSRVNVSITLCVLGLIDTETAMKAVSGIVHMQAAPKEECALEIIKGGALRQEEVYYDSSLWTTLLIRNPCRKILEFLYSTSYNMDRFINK

Compound	pIC50
CC(C)(Oc1ncc(Cl)cc1C(F)(F)F)C(=O)N[C@H]1C[C@H]2CC[C@@H](C1)N2c1ccc(S(C)(=O)=O)cc1 [Example 325, 2-{[5-chloro-3-(trifluoromethyl)pyridin-2-yl]oxy}-2-methyl-N-{8-[4-(methylsulfonyl)phenyl]-8-azabicyclo[3.2.1]oct-3-endo-yl}propanamide]	> 6.70
CC(C)(Oc1ccccc1Cl)C(=O)N[C@H]1C[C@H]2CC[C@@H](C1)N2c1ccc(C(=O)NCC(F)(F)F)cn1 [Example 29, 6-[3-endo-({2-[(2-chlorophenyl)oxy]-2-methylpropanoyl}amino)-8-azabicyclo[3.2.1]oct-8-yl]-N-(2,2,2-trifluoroethyl)pyridine-3-carboxamide]	> 6.70
CC(C)(Oc1ccccc1C(F)(F)F)C(=O)N[C@H]1C[C@H]2CC[C@@H](C1)N2c1ccc(S(N)(=O)=O)cn1 [Example 256, N-{8-[5-(aminosulfonyl)pyridin-2-yl]-8-azabicyclo[3.2.1]oct-3-endo-yl}-2-methyl-2-{[2-(trifluoromethyl)phenyl]oxy}propanamide]	> 6.70
CC(C)(Oc1cc(C(C)(C)O)c(Cl)cc1Cl)C(=O)N[C@H]1C[C@H]2CC[C@@H](C1)N2c1ccc(C(=O)O)cn1 [Example 474, 6-[3-endo-({2-[2,4-dichloro-5-(2-hydroxypropan-2-yl)phenoxy]-2-methylpropanoyl}amino)-8-azabicyclo[3.2.1]oct-8-yl]pyridine-3-carboxylic acid]	> 5.70
CC(C)(Oc1ccc(Cl)cc1C1CCCC1)C(=O)N[C@H]1C[C@H]2CC[C@@H](C1)N2c1ccc(C(N)=O)cn1 [Example 320, 6-[3-endo-({2-[(4-chloro-2-cyclopentylphenyl)oxy]-2-methylpropanoyl}amino)-8-azabicyclo[3.2.1]oct-8-yl]pyridine-3-carboxamide]	> 6.70
NC(=O)c1ccc(N2[C@@H]3CC[C@H]2C[C@@H](NC(=O)C2(c4cccc(Cl)c4)CC2)C3)nc1 [Example 102, 6-[3-endo-({[1-(3-chlorophenyl)cyclopropyl]carbonyl}amino)-8-azabicyclo[3.2.1]oct-8-yl]pyridine-3-carboxamide]	> 6.70
CS(=O)(=O)c1ccc(N2[C@@H]3CC[C@H]2C[C@@H](NC(=O)C2(c4ccc(F)c(F)c4)CC2)C3)nc1 [Example 281, 1-(3,4-difluorophenyl)-N-{8-[5-(methylsulfonyl)pyridin-2-yl]-8-azabicyclo[3.2.1]oct-3-endo-yl}cyclopropanecarboxamide]	> 5.70
CC(C)(Oc1ccc(Cl)cc1C(F)(F)F)C(=O)N[C@H]1C[C@H]2CC[C@@H](C1)N2c1ccc(C(N)=O)cn1 [Example 169, 6-{3-endo-[(2-{[4-chloro-2-(trifluoromethyl)phenyl]oxy}-2-methylpropanoyl)amino]-8-azabicyclo[3.2.1]oct-8-yl}pyridine-3-carboxamide]	> 6.70
CC(C)(Oc1ccc(Cl)cc1Cl)C(=O)N[C@H]1C[C@H]2CC[C@@H](C1)N2c1ccc(C(=O)NCCN2CCCC2)cn1 [Example 340, 6-(3-endo-{[2-(2,4-dichlorophenoxy)-2-methylpropanoyl]amino}-8-azabicyclo[3.2.1]oct-8-yl)-N-[2-(pyrrolidin-1-yl)ethyl]pyridine-3-carboxamide]	> 6.70
O=C(NC1CC1)c1ccc(N2[C@@H]3CC[C@H]2C[C@@H](NC(=O)C2(c4ccc(Cl)cc4)CC2)C3)cc1 [Example 62, 4-[3-endo-({[1-(4-chlorophenyl)cyclopropyl]carbonyl}amino)-8-azabicyclo[3.2.1]oct-8-yl]-N-cyclopropylbenzamide]	> 6.70
CC(C)(Oc1cc(F)c(C(C)(C)O)cc1Cl)C(=O)N[C@H]1C[C@H]2CC[C@@H](C1)N2c1ccc(C(=O)NCC(F)F)cn1 [Example 304, 6-[3-endo-({2-[2-chloro-5-fluoro-4-(2-hydroxypropan-2-yl)phenoxy]-2-methylpropanoyl}amino)-8-azabicyclo[3.2.1]oct-8-yl]-N-(2,2-difluoroethyl)pyridine-3-carboxamide]	> 6.70
CC(C)(Oc1ccc(Cl)cc1Cl)C(=O)N[C@H]1C[C@H]2CC[C@@H](C1)N2c1ccc(S(C)(=O)=O)cn1 [Example 140, 2-[(2,4-dichlorophenyl)oxy]-2-methyl-N-{8-[5-(methylsulfonyl)pyridin-2-yl]-8-azabicyclo[3.2.1]oct-3-endo-yl}propanamide]	> 6.70
CC(C)(Oc1cc(Cl)c(C(C)(C)O)cc1Cl)C(=O)N[C@H]1C[C@H]2CC[C@@H](C1)N2c1ccc(C(=O)NCC(F)F)cn1 [Example 303, 6-[3-endo-({2-[2,5-dichloro-4-(2-hydroxypropan-2-yl)phenoxy]-2-methylpropanoyl}amino)-8-azabicyclo[3.2.1]oct-8-yl]-N-(2,2-difluoroethyl)pyridine-3-carboxamide]	> 6.70
C[C@H](NC(=O)c1ccc(N2C3CCC2CC(NC(=O)C(C)(C)Oc2ccc(C(F)F)cc2Cl)C3)nc1)C(F)(F)F (stereo partly drawn) [Example 453, 6-[3-endo-({2-[2-chloro-4-(difluoromethyl)phenoxy]-2-methylpropanoyl}amino)-8-azabicyclo[3.2.1]oct-8-yl]-N-[(2S)-1,1,1-trifluoropropan-2-yl]pyridine-3-carboxamide]	> 6.70
CC(C)(Oc1ccc(C(F)(F)F)cn1)C(=O)N[C@H]1C[C@H]2CC[C@@H](C1)N2c1ccc(S(N)(=O)=O)cc1 [Example 192, N-{8-[4-(aminosulfonyl)phenyl]-8-azabicyclo[3.2.1]oct-3-endo-yl}-2-methyl-2-{[5-(trifluoromethyl)pyridin-2-yl]oxy}propanamide]	> 5.70
CC(C)(Oc1ccc(Cl)cc1Cl)C(=O)N[C@H]1C[C@H]2CC[C@@H](C1)N2c1ccc(NC(=O)CC(F)(F)F)cc1 [Example 133, N-{4-[3-endo-({2-[(2,4-dichlorophenyl)oxy]-2-methylpropanoyl}amino)-8-azabicyclo[3.2.1]oct-8-yl]phenyl}-3,3,3-trifluoropropanamide]	> 6.70
CC(C)(Oc1ccc(Cl)c(Cl)c1)C(=O)N[C@H]1C[C@H]2CC[C@@H](C1)N2c1ccc(C(=O)NCC(F)(F)F)cc1 [Example 166, 4-[3-endo-({2-[(3,4-dichlorophenyl)oxy]-2-methylpropanoyl}amino)-8-azabicyclo[3.2.1]oct-8-yl]-N-(2,2,2-trifluoroethyl)benzamide]	> 6.70
C[C@H](NC(=O)c1ccc(N2C3CCC2CC(NC(=O)C(C)(C)Oc2ccc(Cl)cc2C(F)F)C3)nc1)C(F)(F)F (stereo partly drawn) [Example 424, 6-[3-endo-({2-[4-chloro-2-(difluoromethyl)phenoxy]-2-methylpropanoyl}amino)-8-azabicyclo[3.2.1]oct-8-yl]-N-[(2S)-1,1,1-trifluoropropan-2-yl]pyridine-3-carboxamide]	> 6.70
CC(C)(Oc1ccc(Cl)cc1C(F)(F)F)C(=O)NC1CC2CCC(C1)N2c1ccc(C(=O)NC2CC2(F)F)cn1 (stereo not drawn) [Example 345, 6-[3-endo-({2-[4-chloro-2-(trifluoromethyl)phenoxy]-2-methylpropanoyl}amino)-8-azabicyclo[3.2.1]oct-8-yl]-N-(2,2-difluorocyclopropyl)pyridine-3-carboxamide]	> 6.70
C[C@H](NC(=O)c1ccc(N2C3CCC2CC(NC(=O)C(C)(C)Oc2ccc(Cl)cc2)C3)nc1)C(F)(F)F (stereo partly drawn) [Example 420, 6-(3-endo-{[2-(4-chlorophenoxy)-2-methylpropanoyl]amino}-8-azabicyclo[3.2.1]oct-8-yl)-N-[(2S)-1,1,1-trifluoropropan-2-yl]pyridine-3-carboxamide]	> 5.70
O=C(NC1CC1)c1ccc(N2[C@@H]3CC[C@H]2C[C@@H](NC(=O)C2(c4cccc(Cl)c4)CC2)C3)nc1 [Example 16, 6-[3-endo-({[1-(3-chlorophenyl)cyclopropyl]carbonyl}amino)-8-azabicyclo[3.2.1]oct-8-yl]-N-cyclopropylpyridine-3-carboxamide]	> 6.70
CC(C)(Oc1ccc(Cl)cc1Cl)C(=O)N[C@H]1C[C@H]2CC[C@@H](C1)N2C(=O)c1ccc(C(N)=O)cc1 [Example 279, 4-{[3-endo-({2-[(2,4-dichlorophenyl)oxy]-2-methylpropanoyl}amino)-8-azabicyclo[3.2.1]oct-8-yl]carbonyl}benzamide]	> 5.70
CC(C)(Oc1ccc(Cl)cc1C(F)F)C(=O)NC1CC2CCC(C1)N2c1ccc(C(=O)NC2CC2(F)F)cn1 (stereo not drawn) [Example 393, 6-[3-endo-({2-[4-chloro-2-(difluoromethyl)phenoxy]-2-methylpropanoyl}amino)-8-azabicyclo[3.2.1]oct-8-yl]-N-(2,2-difluorocyclopropyl)pyridine-3-carboxamide]	> 6.70
CC(C)(Oc1ccc(Cl)cc1)C(=O)N[C@H]1C[C@H]2CC[C@@H](C1)N2c1ccc(C(=O)NC2CC2)cn1 [Example 13, 6-[3-endo-({2-[(4-chlorophenyl)oxy]-2-methylpropanoyl}amino)-8-azabicyclo[3.2.1]oct-8-yl]-N-cyclopropylpyridine-3-carboxamide]	> 6.70
O=C(NCC(F)(F)F)c1ccc(N2[C@@H]3CC[C@H]2C[C@@H](NC(=O)C2(c4cccc(F)c4)CC2)C3)nc1 [Example 123, 6-[3-endo-({[1-(3-fluorophenyl)cyclopropyl]carbonyl}amino)-8-azabicyclo[3.2.1]oct-8-yl]-N-(2,2,2-trifluoroethyl)pyridine-3-carboxamide]	> 6.70
NC(=O)c1ccc(N2[C@@H]3CC[C@H]2C[C@@H](NC(=O)C2(c4ccc(F)c(F)c4)CC2)C3)nc1 [Example 141, 6-[3-endo-({[1-(3,4-difluorophenyl)cyclopropyl]carbonyl}amino)-8-azabicyclo[3.2.1]oct-8-yl]pyridine-3-carboxamide]	> 6.70
CC(C)(Oc1ccc(F)cc1Cl)C(=O)N[C@H]1C[C@H]2CC[C@@H](C1)N2c1ccc(S(N)(=O)=O)cn1 [Example 158, N-{8-[5-(aminosulfonyl)pyridin-2-yl]-8-azabicyclo[3.2.1]oct-3-endo-yl}-2-[(2-chloro-4-fluorophenyl)oxy]-2-methylpropanamide]	> 6.70
